Measured values: patent publication US8729128B2, “Lipoxin A4 protection for cornea endothelial cells” (Board of Supervisors of Louisiana State University And …, priority 2007, dated 2014)

Key:
Type in all cases: cell-based
[1] = test system: human corneal endothelial cells; assay: Proliferation of cultured human corneal endothelial cells (Ki-67 immunofluorescence); conditions: human CEC, second passage, 100 nM, 24 hours
Method: (§1) Human eyeballs were obtained from NDRI (National Disease Research Interchange, Philadelphia, Pa.) and shipped to the laboratory on ice. The corneas were excised along the sclerocorneal rim, and the endothelia together with the Decemet's membrane were removed with tooth-free fine forceps under a dissection microscope. Pieces of the endothelia were seeded in DMEM/F12 (GIBCO®, Grand Island, N.Y.) supplemented with 15% FBS in 12-well plates. Cell phenotypes were identified and confirmed by using the endothelial cell marker anti-ZO-1 antibody (Zymed Laboratories, Inc., San Francisco, Calif.). […] This method of cell culture was used to establish cell cultures from several human eyeballs.
A secondary passage of human corneal endothelial cells derived from a donor was obtained as described above in Example 4. The cells were grown to 70% confluence in 24-well plate, and then starved for 24 hours. The starved cells were then incubated in DMEM/F12 containing 0.5% FBS with or without 15-epimer LxA4 (100 nM; from Calbiochem, Madison, Wis.) for 24 hours. […] Based on the rabbit studies above, it is believed that lipoxin A4 and its other analogs would show similar results as the 15-epimer lipoxin A4 used in these experiments.

[2] = test system: Rabbit corneal endothelial cells (RCEC); assay: In vitro wound closure in confluent rabbit corneal endothelial cells; conditions: 10 nM and 100 nM, 24 hours
Text: (§2) Rabbit corneal endothelial cells (RCEC) and human corneal endothelial cells along with the Decemet's membrane were isolated from normal eyes (National Disease Research Interchange (NDRI), Philadelphia, Pa.), and the cells were suspended in Dulbecco's Modified Eagle Medium/Nutrient Mixture F-12 (DMEM/F12; GIBCO®, Grand Island, N.Y.) supplemented with 15% fetal bovine serum (FBS; GIBCO®), and seeded in 12-well plates. Cell phenotype was identified by using the endothelial cell marker anti-ZO-1 antibody (anti-zonula occludins-1 antibody) (Zymed Laboratories, Inc., San Francisco, Calif.). The localization of the lipoxin A4 (LXA4) receptor was detected with the polyclonal antibody FPRL1 (formyl peptide receptor-like 1; sc-13193, Santa Cruz Biotechnology, Inc., Santa Cruz, Calif.) (FIG. 1). […] The same was found with human endothelial cells. (Data not shown) This is the first time such receptor has been reported in cornea endothelial cells.
To measure in vitro wound closure, 12-day cultures of completely confluent RCEC in 12-well plates were wounded by linear scraping with a sterile plastic tip in the center of the well. Cells were incubated for 24 hours in DMEM/F12 with or without 15-epimer lipoxin A4 at 10 nM and 100 nM concentrations. The width of wound was calculated using Metavue Image software. […]

[3] = test system: human corneal endothelial cells; assay: Cell migration in a wound of human corneal endothelial cells; conditions: human CEC, 100 nM, at 48 hours, p<0.05
Method: as §1
A secondary passage of human corneal endothelial cells derived from a donor was obtained as described above in Example 4. The cells were grown to 70% confluence in 24-well plate, and then starved for 24 hours. […] Wound healing was determined by phase contrast images collected by a camera attached to the microscope, and the result shown in FIG. 6B. The width of wound was calculated using Metavue Image software. The degree of cell migration was quantified by measuring the width of the wounded area at 24 and 48 hours, and the data shown in FIG. 6A. […]

[4] = test system: Rabbit corneal endothelial cells (RCEC); assay: Proliferation of rabbit corneal endothelial cells (Ki-67 antibody staining); conditions: rabbit CEC, 10 nM to 200 nM, DMEM/F12 0.5% FBS, 24 hours
Text: as §2
Proliferation of cornea endothelial cells was evaluated with anti-Ki-67 antibody (Zymed Laboratories, Inc., San Francisco, Calif.). Rabbit CEC cells were grown at 60-70% confluence, starved for 24 hours, and then treated with 15-epimer-lipoxin A4 (Calbiochem, Madison, Wis.) at different concentrations from 10 nM to 200 nM in DMEM/F12 containing 0.5% FBS for 24 hours. […] In addition, a similar experiment was conducted using lipoxin A4.

Compound | cell proliferation (percentage of Ki-67-positive cells versus total cells) [1] | wound healing (width of wound) [2] | cell migration (width of the wounded area) [3] | number of cells with Ki-67 staining (proliferation) [4]
CCCCC[C@@H](O)/C=C/C=C\C=C\C=C\[C@@H](O)[C@@H](O)CCCC(=O)O [15-epimer lipoxin A4] | significant increase | promoted wound healing | significant increase in cell migration | increases with the concentration
CCCCC[C@H](O)/C=C/C=C\C=C\C=C\[C@@H](O)[C@@H](O)CCCC(=O)O [lipoxin A4] |  | the same, both qualitatively and quantitatively |  | the same, both qualitatively and quantitatively
